From patent US20260216057A1, “PHARMACEUTICAL COMPOSITIONS FOR HERPES VIRUS” (priority 2022, published 2026)

Columns and labels:
[1] = test system: carbonic anhydrase I and/or carbonic anhydrase II; test: Carbonic anhydrase inhibition; type: biochemical
From the text: Carbonic anhydrase inhibition can be measured using a carbonic anhydrase I assay as described in Katritzky et al. (J. Med. Chem. 1987, 30:2058) and a carbonic anhydrase […] assay as described in lyer et al. (J. Biomol. Screen 2006, 11:782).

[2] = Example 7: Compound 1 aqueous suspension SC PK study in dog; type: in vivo, male non-naïve Beagle dogs; settings: aqueous suspension (Form A), 10 mg/kg
Method: The LC-MS methodology and conditions used to analyse the helicase-primase inhibitor Compound 1 in plasma samples from the sub-cutaneous injection PK studies (Examples 7 and 10-12) are described in Table 3 and Table 4. An aqueous suspension of crystalline Compound 1 (Form A) was prepared in a 0.9% NaCl+0.5% poloxamer 188 vehicle at a concentration of 5.0 mg/mL as described in Example 4. The suspension was then dosed to male non-naïve beagle dogs at 10 mg/kg according to the Example 4 animal dosing method.

[3] = Example 11: Compound 1 (Form A) aqueous suspension SC PK study in monkey; type: in vivo, male cynomolgus monkeys; settings: 10 mg/kg, following an initial drug burst
Method: An aqueous suspension of Compound 1 free form (Form A) in a 0.9% NaCl+0.5% polysorbate 80 vehicle at a concentration of 3.0 mg/mL was prepared as follows: • 1) Vehicle (0.9% w/w NaCl and 0.5% w/w polysorbate 80) was prepared by dissolving NaCl and polysorbate 80 in water. • 2) Appropriate amount of Compound 1 was weighed and added to the vehicle. • 3) The mixture was stirred for 15 minutes, then vortexed for 1 minute and then sonicated for 10 minutes. • 4) The final dosing formulation was a homogenous white cloudy suspension.
Male non-naïve Cyno Monkeys with ~4-6 kg body weight were used for the monkey PK study. The animals had free access to food and water. The prepared suspension was administered via subcutaneous injection to each animal group (n=3) with a dosing volume of 3.33 mL/kg to achieve a 10 mg/kg dose.
At each time point, approximately 0.5 mL whole blood was collected via the cephalic and saphenous vein into K2EDTA tubes. Blood samples were put on to ice and centrifuged at 2000 g for 5 min to obtain plasma sample within 15 minutes. Plasma samples were stored at approximately −70° C. until analyzed by LC-MS.

[4] = Example 14: pritelivir SC PK study in dog (solution, micro-suspension, nano-suspension); type: in vivo, male non-naïve Beagle dogs; settings: 10 mg/kg
Method: The LC-MS methodology and conditions used to analyse pritelivir in dog plasma samples from the PK study described in Example 14 are provided in Table 2.
A solution of pritelivir in 90% NMP (Sigma) and 10% Solutol HS15 (BASF) at a concentration of 100 mg/mL was prepared as follows: • 1) Around 460 mg of crystalline pritelivir free base sesquihydrate (based on assay) was weighed and added to ~3.9 mL of NMP. The mixture was stirred for 10 mins. • 2) After the pritelivir had dissolved, Solutol HS15 (−0.4 mL) was added to the solution and mixed for another 2 mins. • 3) The final dosing formulation was a clear solution.
An aqueous micro-suspension of crystalline pritelivir free base (sesquihydrate) in a 2 mg/mL polysorbate 80 (Tween 80) and 5 mg/mL Methocel A4M vehicle at a concentration of 100 mg/mL was prepared as follows: • 1) Crystalline pritelivir free base (sesquihydrate) was jet milled [grinding pressure […]] to obtain microparticles (Dv90<10 um). • 2) Around 460 mg of jet milled material (based on assay) were then dispersed in a 2 mg/mL polysorbate 80 (Tween 80) and 5 mg/ml Methocel A4M solution (−4.4 mL) to obtain a 100 mg/ml suspension. • 3) The mixture was stirred for 10 minutes. • 4) The final dosing formulation was a homogenous white cloudy suspension.
An aqueous nano-suspension of crystalline pritelivir free base (sesquihydrate) in a 10 mg/mL NaCMC, 2 mg/mL polysorbate 80 (Tween 80) and 50 mg/mL mannitol vehicle at a concentration of 100 mg/mL was prepared as follows: • 1) 10 mg/mL crystalline pritelivir free base (sesquihydrate) was dispersed into a solution of 1 mg/mL NaCMC+0.2 mg/mL polysorbate 80 (Tween 80) and 5 mg/mL mannitol. • 2) The suspension was subjected to high pressure homogenizer (around 20 cycles at 600 bar followed with 130 cycles at 900 bar) until particle size was around 1 μm. • 3) After particle size reduction, the suspension was subjected to freeze drying to obtain a freeze-dried powder. • 4) The freeze-dried powder was reconstituted with water to obtain a 100 mg/ml suspension. • 5) The suspension was wet milled (10:1 0.1 mm zirconium oxide milling beads: pritelivir) at 700 rpm for 500 minutes to reduce particle size to nanosized particles (Dv90<500 nm). • 6) This nanosuspension was subjected to freeze drying to obtain a freeze-dried powder. • 7) Appropriate amounts of freeze-dried powder (based on assay) were weighed and added to water to obtain a 100 mg/ml suspension. • 8) The mixture was stirred for 10 minutes. • 9) The final dosing formulation was a homogenous white cloudy suspension.
Male non-naïve beagles were used for the dog PK study. […]
At each time point, approximately 0.5 mL of whole blood was collected into K2EDTA tubes. […] Plasma samples were stored at approximately −70° C. until analyzed by LC-MS.

Compound	carbonic anhydrase inhibition [1]	prolonged exposure out to (length of the study) [2]	prolonged exposure out to [3]	plasma exposure after SC administration ([4]; 0.1 mL/kg, all three formulations (solution, microsuspension, nanosuspension; 100 mg/mL))	plasma concentrations, microsuspension compared with nanosuspension ([4]; early time points (up to 234 hr))	plasma concentration levels of the solution formulation compared with the suspensions ([4]; solution in 90% NMP/10% Solutol HS15, early time points)	adverse reactions at the injection sites ([4]; three formulations)
Cc1nc(N2CCCN(c3ccc(-c4cc(F)ccc4F)cc3)C2=O)sc1S(N)(=O)=O [Compound 1, 2-(3-(2′,5′-difluoro-[1,1′-biphenyl]-4-yl)-2-oxotetrahydropyrimidin-1(2H)-yl)-4-methylthiazole-5-sulfonamide]	no or low levels of carbonic anhydrase inhibition	at least 1392 hours	at least 220 days				
Cc1nc(N(C)C(=O)Cc2ccc(-c3ccccn3)cc2)sc1S(N)(=O)=O [pritelivir, N-methyl-N-(4-methyl-5-sulfamoyl-1,3-thiazol-2-yl)-2-[4-(pyridin-2-yl)phenyl]acetamide]				Prolonged exposure was achieved	higher plasma concentrations of pritelivir were obtained from the microsuspension	highest plasma concentration levels at the early time points	no adverse reactions were observed
